Active and inactive are the calls of the source. The rule behind the calls is not given here.
Biological target: T1, Cytochrome P450 2A6 (Homo sapiens, UniProt P11509)
T1 sequence (P11509 whole entry): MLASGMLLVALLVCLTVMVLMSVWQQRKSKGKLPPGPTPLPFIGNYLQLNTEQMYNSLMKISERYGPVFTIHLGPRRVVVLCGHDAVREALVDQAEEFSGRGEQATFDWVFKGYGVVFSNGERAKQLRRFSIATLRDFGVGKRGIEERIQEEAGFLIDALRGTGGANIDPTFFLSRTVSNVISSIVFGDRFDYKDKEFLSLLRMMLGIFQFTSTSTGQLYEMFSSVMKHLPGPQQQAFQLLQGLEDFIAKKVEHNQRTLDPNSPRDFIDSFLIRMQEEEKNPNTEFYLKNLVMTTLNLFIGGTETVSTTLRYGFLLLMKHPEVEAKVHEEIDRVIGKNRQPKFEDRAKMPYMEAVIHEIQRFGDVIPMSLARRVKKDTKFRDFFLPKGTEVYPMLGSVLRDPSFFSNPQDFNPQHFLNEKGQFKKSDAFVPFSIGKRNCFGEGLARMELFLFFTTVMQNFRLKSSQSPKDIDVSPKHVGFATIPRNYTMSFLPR
Assay: Inhibition of CYP2A6
Format: ADME
Conditions: not given
For O=C(Nc1ccncc1)Nc1ccc(-c2nc(N3CCOCC3)nc(N3C4CCC3COC4)n2)cc1 [PKI-179], the IC50 was > 30000 nM.

Tested on: MDA-MB-361
Assay: Induction of apoptosis in human MDA-MB-361 cells assessed as PARP cleavage after 4 hrs
Format: functional, cell-based
Conditions: not given
With O=C(Nc1ccncc1)Nc1ccc(-c2nc(N3CCOCC3)nc(N3C4CCC3COC4)n2)cc1 [PKI-179] the Activity was “Active”.

Biological target: T2, Cytochrome P450 2B6 (Homo sapiens, UniProt P20813)
T2 sequence (P20813 whole entry): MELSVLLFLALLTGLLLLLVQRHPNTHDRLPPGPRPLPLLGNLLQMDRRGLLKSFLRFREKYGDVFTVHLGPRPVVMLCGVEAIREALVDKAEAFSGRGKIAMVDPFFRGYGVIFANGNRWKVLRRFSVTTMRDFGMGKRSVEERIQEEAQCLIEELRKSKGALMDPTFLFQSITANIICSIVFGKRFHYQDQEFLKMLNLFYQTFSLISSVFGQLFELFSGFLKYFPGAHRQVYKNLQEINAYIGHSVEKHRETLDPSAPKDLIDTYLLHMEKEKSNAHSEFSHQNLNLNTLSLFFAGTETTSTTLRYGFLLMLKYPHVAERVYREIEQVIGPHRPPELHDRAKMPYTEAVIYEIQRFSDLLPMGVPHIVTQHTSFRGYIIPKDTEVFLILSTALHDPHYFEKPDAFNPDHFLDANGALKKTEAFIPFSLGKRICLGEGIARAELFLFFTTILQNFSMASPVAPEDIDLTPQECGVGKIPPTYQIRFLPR
Assay: Inhibition of CYP2B6
Format: ADME
Conditions: not given
For O=C(Nc1ccncc1)Nc1ccc(-c2nc(N3CCOCC3)nc(N3C4CCC3COC4)n2)cc1 [PKI-179], the IC50 was > 30000 nM.

Tested on: PC-3
Assay: Antiproliferative activity against human PC3 cells
Format: functional, cell-based
Conditions: not given
For O=C(Nc1ccc(CO)cc1)Nc1ccc(-c2nc(N3CCOCC3)nc(N3C4CCC3COC4)n2)cc1, the IC50 was 28 nM.
With CN1CCN(Cc2ccc(NC(=O)Nc3ccc(-c4nc(N5CCOCC5)nc(N5C6CCC5COC6)n4)cc3)cc2)CC1 the IC50 was 31 nM.
Compound N#Cc1ccc(NC(=O)Nc2ccc(-c3nc(N4CCOCC4)nc(N4C5CCC4COC5)n3)cc2)cc1 has an IC50 of 3600 nM.
O=C(Nc1ccncc1)Nc1ccc(-c2nc(N3CCOCC3)nc(N3C4CCC3COC4)n2)cc1 [PKI-179] showed an IC50 of 29 nM.

Tested on: Mus musculus
Assay: In vivo inhibition of mTORC1 in mouse bearing human MDA-MB-361 cells assessed as inhibition of S6 phosphorylation at 50 mg/kg, po
Format: functional, organism-based
Parameters: dose 50 mg/kg
Conditions: not given
For O=C(Nc1ccncc1)Nc1ccc(-c2nc(N3CCOCC3)nc(N3C4CCC3COC4)n2)cc1 [PKI-179], the inhibition was “Active”.

Biological target: T3, Cytochrome P450 1A2 (Homo sapiens, UniProt P05177)
T3 sequence (P05177 whole entry): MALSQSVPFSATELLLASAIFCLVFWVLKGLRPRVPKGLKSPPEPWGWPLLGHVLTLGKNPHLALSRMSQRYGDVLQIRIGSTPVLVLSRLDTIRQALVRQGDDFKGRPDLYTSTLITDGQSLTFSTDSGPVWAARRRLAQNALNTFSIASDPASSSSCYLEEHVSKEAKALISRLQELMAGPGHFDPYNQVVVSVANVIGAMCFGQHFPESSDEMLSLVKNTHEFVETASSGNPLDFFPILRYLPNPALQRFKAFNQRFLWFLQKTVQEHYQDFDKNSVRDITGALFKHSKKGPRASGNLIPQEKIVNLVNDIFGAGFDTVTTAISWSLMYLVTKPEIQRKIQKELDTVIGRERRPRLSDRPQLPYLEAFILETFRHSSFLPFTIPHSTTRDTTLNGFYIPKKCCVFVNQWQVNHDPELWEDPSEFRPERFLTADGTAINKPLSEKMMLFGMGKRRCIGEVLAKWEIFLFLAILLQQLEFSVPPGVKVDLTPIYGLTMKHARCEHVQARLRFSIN
Assay: Inhibition of CYP1A2
Format: ADME
Conditions: not given
For O=C(Nc1ccncc1)Nc1ccc(-c2nc(N3CCOCC3)nc(N3C4CCC3COC4)n2)cc1 [PKI-179], the IC50 was > 30000 nM.

Biological target: Phosphatidylinositol 4,5-bisphosphate 3-kinase catalytic subunit alpha isoform (Homo sapiens, UniProt P42336, E545K)
Sequence (P42336 whole entry E545K, canonical isoform): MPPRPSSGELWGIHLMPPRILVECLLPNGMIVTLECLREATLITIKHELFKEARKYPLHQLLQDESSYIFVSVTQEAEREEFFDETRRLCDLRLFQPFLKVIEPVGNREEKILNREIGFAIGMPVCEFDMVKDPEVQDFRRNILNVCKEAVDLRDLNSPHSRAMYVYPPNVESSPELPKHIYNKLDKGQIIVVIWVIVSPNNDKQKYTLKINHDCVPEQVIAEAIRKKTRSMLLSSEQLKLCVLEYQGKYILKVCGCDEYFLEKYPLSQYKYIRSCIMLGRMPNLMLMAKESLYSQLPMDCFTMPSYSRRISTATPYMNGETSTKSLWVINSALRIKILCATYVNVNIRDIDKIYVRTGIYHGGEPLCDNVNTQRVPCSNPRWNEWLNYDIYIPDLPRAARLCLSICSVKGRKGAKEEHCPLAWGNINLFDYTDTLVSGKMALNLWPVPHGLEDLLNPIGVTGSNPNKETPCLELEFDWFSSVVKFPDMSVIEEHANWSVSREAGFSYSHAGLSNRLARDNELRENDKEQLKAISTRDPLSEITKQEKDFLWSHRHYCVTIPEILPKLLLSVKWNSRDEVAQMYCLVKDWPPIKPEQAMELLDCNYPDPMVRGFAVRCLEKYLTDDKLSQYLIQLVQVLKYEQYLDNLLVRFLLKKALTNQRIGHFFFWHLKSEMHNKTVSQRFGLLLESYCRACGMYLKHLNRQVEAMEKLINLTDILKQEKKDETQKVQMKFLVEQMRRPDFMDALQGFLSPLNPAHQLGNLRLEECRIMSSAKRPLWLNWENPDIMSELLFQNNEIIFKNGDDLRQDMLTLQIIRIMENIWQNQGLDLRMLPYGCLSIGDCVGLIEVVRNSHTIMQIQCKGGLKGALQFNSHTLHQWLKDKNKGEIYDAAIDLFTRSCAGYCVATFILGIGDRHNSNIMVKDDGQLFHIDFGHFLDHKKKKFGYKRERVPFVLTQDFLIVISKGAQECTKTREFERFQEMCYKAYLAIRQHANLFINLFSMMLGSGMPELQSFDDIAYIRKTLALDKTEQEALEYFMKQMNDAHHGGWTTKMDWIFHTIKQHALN
Assay: Inhibition of PI3K-alpha E545K mutant
Conditions: not given
In the case of O=C(Nc1ccncc1)Nc1ccc(-c2nc(N3CCOCC3)nc(N3C4CCC3COC4)n2)cc1 [PKI-179], the IC50 is reported as 14 nM.

Tested on: MDA-MB-361
Assay: Antiproliferative activity against human MDA-MB-361 cells
Format: functional, cell-based
Conditions: not given
Work on O=C(Nc1ccc(CO)cc1)Nc1ccc(-c2nc(N3CCOCC3)nc(N3C4CCC3COC4)n2)cc1 yielded an IC50 of 15 nM.
With CN1CCN(Cc2ccc(NC(=O)Nc3ccc(-c4nc(N5CCOCC5)nc(N5C6CCC5COC6)n4)cc3)cc2)CC1 the IC50 was 14 nM.
With N#Cc1ccc(NC(=O)Nc2ccc(-c3nc(N4CCOCC4)nc(N4C5CCC4COC5)n3)cc2)cc1 the IC50 was 345 nM.
O=C(Nc1ccncc1)Nc1ccc(-c2nc(N3CCOCC3)nc(N3C4CCC3COC4)n2)cc1 [PKI-179] showed an IC50 of 22 nM.

Biological target: Cytochrome P450 2D6 (Homo sapiens, UniProt P10635)
Sequence (P10635 whole entry): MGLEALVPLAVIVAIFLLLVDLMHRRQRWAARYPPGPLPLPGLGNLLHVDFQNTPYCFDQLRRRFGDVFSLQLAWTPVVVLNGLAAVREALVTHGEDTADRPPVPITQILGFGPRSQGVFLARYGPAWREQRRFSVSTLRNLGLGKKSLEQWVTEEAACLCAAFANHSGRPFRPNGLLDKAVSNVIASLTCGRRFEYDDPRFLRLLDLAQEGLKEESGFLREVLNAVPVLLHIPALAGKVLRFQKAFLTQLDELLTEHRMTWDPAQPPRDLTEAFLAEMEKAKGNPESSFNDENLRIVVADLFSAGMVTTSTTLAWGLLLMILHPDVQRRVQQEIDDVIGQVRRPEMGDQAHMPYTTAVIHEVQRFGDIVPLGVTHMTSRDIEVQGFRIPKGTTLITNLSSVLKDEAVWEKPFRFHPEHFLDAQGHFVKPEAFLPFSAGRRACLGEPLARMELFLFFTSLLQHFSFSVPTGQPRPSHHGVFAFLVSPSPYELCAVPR
Assay: Inhibition of CYP2D6
Format: ADME
Conditions: not given
With O=C(Nc1ccncc1)Nc1ccc(-c2nc(N3CCOCC3)nc(N3C4CCC3COC4)n2)cc1 [PKI-179] the IC50 was > 30000 nM.

Tested on: MDA-MB-361
Assay: Antitumor activity against human MDA-MB-361 cells xenografted in mouse assessed as inhibition tumor growth at 10 mg/kg, po qd
Format: functional, organism-based
Parameters: dose 10 mg/kg
Conditions: not given
For O=C(Nc1ccncc1)Nc1ccc(-c2nc(N3CCOCC3)nc(N3C4CCC3COC4)n2)cc1 [PKI-179], the inhibition was “Active”.

Biological target: Phosphatidylinositol 4,5-bisphosphate 3-kinase catalytic subunit beta isoform (Homo sapiens, UniProt P42338)
Sequence (P42338 whole entry, canonical isoform): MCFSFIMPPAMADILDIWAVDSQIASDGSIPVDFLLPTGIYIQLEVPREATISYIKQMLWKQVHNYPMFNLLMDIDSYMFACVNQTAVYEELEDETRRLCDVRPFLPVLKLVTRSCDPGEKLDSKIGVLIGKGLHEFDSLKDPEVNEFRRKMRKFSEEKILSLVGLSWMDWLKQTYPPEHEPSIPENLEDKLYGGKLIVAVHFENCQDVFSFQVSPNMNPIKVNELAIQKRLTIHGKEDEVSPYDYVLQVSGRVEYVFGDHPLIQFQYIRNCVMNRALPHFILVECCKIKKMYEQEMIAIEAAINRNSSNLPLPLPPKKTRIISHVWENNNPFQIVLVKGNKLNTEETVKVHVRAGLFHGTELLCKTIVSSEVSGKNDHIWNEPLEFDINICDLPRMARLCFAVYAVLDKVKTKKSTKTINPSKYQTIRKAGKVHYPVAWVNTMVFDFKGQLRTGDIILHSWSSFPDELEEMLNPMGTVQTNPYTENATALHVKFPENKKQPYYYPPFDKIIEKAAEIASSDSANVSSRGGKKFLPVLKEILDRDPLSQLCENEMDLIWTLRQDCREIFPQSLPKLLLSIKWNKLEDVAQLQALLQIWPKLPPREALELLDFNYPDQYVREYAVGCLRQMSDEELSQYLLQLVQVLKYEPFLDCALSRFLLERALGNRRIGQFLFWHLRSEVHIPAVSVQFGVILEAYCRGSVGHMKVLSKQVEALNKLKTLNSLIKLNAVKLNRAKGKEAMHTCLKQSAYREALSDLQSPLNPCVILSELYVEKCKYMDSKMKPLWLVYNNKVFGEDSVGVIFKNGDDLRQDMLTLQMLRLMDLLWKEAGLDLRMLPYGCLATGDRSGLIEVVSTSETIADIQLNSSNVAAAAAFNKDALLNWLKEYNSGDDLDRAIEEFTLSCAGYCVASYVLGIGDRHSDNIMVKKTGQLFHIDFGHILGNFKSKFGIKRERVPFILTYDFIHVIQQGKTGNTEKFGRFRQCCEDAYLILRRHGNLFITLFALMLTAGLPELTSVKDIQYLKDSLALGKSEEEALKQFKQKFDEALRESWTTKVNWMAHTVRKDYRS
Assay: Inhibition of PI3K-beta
Conditions: not given
For O=C(Nc1ccncc1)Nc1ccc(-c2nc(N3CCOCC3)nc(N3C4CCC3COC4)n2)cc1 [PKI-179], the IC50 was 24 nM.

Biological target: T4, Phosphatidylinositol 4,5-bisphosphate 3-kinase catalytic subunit delta isoform (Homo sapiens, UniProt O00329)
T4 sequence (O00329 whole entry): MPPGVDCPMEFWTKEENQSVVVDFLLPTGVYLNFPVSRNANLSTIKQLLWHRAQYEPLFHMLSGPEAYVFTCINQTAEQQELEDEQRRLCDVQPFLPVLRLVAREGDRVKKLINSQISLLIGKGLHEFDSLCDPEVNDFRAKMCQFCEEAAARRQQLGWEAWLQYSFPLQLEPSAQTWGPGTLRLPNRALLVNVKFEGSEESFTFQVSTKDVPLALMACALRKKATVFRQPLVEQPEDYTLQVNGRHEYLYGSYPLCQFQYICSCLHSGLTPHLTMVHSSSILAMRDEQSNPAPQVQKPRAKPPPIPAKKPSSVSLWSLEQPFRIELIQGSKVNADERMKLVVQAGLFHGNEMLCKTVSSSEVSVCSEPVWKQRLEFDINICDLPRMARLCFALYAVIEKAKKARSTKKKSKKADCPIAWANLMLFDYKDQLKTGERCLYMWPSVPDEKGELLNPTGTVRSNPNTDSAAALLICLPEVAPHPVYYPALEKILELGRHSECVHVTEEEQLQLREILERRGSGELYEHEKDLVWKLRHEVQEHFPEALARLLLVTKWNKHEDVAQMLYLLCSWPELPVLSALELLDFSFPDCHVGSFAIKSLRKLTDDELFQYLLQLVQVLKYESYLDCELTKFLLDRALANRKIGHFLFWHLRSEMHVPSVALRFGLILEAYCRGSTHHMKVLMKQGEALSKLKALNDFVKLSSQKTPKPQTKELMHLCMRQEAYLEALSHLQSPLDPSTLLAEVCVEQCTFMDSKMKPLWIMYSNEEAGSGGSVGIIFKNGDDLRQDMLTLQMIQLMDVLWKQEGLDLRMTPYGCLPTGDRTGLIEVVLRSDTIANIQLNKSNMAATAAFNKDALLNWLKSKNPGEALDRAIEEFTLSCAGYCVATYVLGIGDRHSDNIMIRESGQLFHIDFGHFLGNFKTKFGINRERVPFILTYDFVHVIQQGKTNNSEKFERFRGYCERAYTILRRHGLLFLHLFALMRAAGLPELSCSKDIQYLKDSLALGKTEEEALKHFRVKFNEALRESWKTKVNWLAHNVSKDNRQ
Assay: Inhibition of PI3K-delta
Conditions: not given
With O=C(Nc1ccncc1)Nc1ccc(-c2nc(N3CCOCC3)nc(N3C4CCC3COC4)n2)cc1 [PKI-179] the IC50 was 77 nM.

Tested on: not listed separately
Assay: Inhibition of PI3K-alpha […] mutant
Conditions: not given
Compound O=C(Nc1ccncc1)Nc1ccc(-c2nc(N3CCOCC3)nc(N3C4CCC3COC4)n2)cc1 [PKI-179] has an IC50 of 11 nM.

Biological target: Phosphatidylinositol 4,5-bisphosphate 3-kinase catalytic subunit gamma isoform (Homo sapiens, UniProt P48736)
Sequence (P48736 whole entry, canonical isoform): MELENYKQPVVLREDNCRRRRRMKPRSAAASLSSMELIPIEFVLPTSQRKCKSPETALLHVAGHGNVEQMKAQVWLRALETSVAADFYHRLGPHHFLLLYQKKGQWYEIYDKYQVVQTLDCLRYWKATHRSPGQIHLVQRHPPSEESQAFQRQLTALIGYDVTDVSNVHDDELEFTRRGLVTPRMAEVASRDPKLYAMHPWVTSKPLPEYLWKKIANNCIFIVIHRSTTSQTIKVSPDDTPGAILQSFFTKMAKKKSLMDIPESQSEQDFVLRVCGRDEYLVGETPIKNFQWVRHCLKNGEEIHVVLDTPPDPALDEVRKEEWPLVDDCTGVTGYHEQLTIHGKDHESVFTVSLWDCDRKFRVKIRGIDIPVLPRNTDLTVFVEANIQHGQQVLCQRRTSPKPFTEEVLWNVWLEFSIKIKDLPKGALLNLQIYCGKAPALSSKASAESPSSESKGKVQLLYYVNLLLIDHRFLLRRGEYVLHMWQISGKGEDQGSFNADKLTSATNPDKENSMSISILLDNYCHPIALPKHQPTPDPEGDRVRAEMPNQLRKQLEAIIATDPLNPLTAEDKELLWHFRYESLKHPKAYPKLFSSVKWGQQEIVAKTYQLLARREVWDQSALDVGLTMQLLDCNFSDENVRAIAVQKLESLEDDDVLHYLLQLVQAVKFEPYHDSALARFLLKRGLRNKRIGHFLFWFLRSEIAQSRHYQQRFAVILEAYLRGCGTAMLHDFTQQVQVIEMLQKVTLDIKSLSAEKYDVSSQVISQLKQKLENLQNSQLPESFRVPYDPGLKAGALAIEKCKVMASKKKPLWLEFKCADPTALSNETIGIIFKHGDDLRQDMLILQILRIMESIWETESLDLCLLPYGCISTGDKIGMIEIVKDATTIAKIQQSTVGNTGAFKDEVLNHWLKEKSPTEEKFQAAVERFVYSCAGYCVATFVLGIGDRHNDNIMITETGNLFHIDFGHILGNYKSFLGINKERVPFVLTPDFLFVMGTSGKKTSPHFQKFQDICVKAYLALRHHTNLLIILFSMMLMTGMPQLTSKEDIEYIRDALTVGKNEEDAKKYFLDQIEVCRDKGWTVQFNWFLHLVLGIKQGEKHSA
Assay: Inhibition of PI3K-gamma
Conditions: not given
O=C(Nc1ccncc1)Nc1ccc(-c2nc(N3CCOCC3)nc(N3C4CCC3COC4)n2)cc1 [PKI-179] showed an IC50 of 74 nM.

Biological target: Cytochrome P450 3A4 (Homo sapiens, UniProt P08684)
Sequence (P08684 whole entry): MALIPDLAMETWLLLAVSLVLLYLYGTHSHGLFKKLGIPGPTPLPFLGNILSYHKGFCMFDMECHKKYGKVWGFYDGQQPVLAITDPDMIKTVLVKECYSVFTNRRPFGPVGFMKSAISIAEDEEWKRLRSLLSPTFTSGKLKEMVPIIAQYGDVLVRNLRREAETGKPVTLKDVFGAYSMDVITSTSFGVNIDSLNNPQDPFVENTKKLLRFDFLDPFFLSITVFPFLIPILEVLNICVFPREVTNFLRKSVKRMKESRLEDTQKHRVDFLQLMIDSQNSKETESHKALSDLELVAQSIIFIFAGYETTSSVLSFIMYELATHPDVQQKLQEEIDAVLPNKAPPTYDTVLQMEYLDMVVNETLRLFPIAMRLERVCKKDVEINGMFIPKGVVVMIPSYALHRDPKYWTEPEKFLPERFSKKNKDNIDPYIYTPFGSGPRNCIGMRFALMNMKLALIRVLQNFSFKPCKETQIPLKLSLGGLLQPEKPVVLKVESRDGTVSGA
Assay: Inhibition of CYP3A4
Format: ADME
Conditions: not given
In the case of O=C(Nc1ccncc1)Nc1ccc(-c2nc(N3CCOCC3)nc(N3C4CCC3COC4)n2)cc1 [PKI-179], the IC50 is reported as > 30000 nM.

Biological target: T5, Cytochrome P450 2C8 (Homo sapiens, UniProt P10632)
T5 sequence (P10632 whole entry): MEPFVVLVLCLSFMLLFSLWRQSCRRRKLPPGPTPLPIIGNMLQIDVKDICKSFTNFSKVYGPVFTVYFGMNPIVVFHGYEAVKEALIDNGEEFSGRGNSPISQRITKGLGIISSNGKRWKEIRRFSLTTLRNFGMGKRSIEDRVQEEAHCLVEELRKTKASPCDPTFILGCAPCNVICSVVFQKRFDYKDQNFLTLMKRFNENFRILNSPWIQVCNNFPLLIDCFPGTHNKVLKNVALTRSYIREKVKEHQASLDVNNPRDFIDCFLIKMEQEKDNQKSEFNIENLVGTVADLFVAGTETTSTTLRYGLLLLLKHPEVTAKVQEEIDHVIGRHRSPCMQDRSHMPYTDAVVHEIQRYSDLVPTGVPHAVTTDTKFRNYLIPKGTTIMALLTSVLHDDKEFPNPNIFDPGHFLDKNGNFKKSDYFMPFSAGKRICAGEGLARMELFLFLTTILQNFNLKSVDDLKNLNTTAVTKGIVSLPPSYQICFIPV
Assay: Inhibition of CYP2C8
Format: ADME
Conditions: not given
Work on O=C(Nc1ccncc1)Nc1ccc(-c2nc(N3CCOCC3)nc(N3C4CCC3COC4)n2)cc1 [PKI-179] yielded an IC50 of 3000 nM.

Biological target: Serine/threonine-protein kinase mTOR (Homo sapiens, UniProt P42345)
Assay: Inhibition of mTOR
Conditions: not given
For N#Cc1ccc(NC(=O)Nc2ccc(-c3nc(N4CCOCC4)nc(N4C5CCC4COC5)n3)cc2)cc1, the IC50 was 3.3 nM.
Compound O=C(Nc1ccncc1)Nc1ccc(-c2nc(N3CCOCC3)nc(N3C4CCC3COC4)n2)cc1 [PKI-179] has an IC50 of 0.42 nM.

Tested on: Mus musculus
Assay: Toxicity in mouse assessed as weight loss at 10 mg/kg, po qd
Format: organism-based
Parameters: dose 10 mg/kg, route oral
Conditions: in vivo
With O=C(Nc1ccncc1)Nc1ccc(-c2nc(N3CCOCC3)nc(N3C4CCC3COC4)n2)cc1 [PKI-179] the Activity was “Non-toxic”.

Tested on: Mus musculus
Assay: In vivo inhibition of mTORC1 in mouse bearing human MDA-MB-361 cells assessed as inhibition of S6K phosphorylation at 50 mg/kg, po
Format: functional, organism-based
Parameters: dose 50 mg/kg
Conditions: not given
With O=C(Nc1ccncc1)Nc1ccc(-c2nc(N3CCOCC3)nc(N3C4CCC3COC4)n2)cc1 [PKI-179] the inhibition was “Active”.

Biological target: Cytochrome P450 2C19 (Homo sapiens, UniProt P33261)
Sequence (P33261 whole entry): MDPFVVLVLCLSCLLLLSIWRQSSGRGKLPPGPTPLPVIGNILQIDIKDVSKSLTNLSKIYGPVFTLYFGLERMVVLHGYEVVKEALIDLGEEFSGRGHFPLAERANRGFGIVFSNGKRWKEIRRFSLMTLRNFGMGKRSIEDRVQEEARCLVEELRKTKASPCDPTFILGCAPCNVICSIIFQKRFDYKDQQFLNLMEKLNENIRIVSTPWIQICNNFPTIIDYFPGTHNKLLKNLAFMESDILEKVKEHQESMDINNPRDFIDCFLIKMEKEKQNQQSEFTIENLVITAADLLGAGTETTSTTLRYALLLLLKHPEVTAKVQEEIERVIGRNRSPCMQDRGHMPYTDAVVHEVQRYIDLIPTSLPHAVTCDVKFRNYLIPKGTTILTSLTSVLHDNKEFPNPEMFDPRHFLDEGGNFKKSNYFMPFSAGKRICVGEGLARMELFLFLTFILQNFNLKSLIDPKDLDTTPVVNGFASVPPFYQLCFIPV
Assay: Inhibition of CYP2C19
Format: ADME
Conditions: not given
With O=C(Nc1ccncc1)Nc1ccc(-c2nc(N3CCOCC3)nc(N3C4CCC3COC4)n2)cc1 [PKI-179] the IC50 was > 30000 nM.

Tested on: Mus musculus
Assay: In vivo inhibition of PI3K in mouse bearing human MDA-MB-361 cells assessed as inhibition of AKT phosphorylation at 50 mg/kg, po
Format: functional, organism-based
Parameters: dose 50 mg/kg
Conditions: not given
For O=C(Nc1ccncc1)Nc1ccc(-c2nc(N3CCOCC3)nc(N3C4CCC3COC4)n2)cc1 [PKI-179], the inhibition was “Active”.
